Results published in patent publication US5731452A, “7-thiaprostaglandins and method of production thereof” (Teijin Limited, priority 1994, dated 1998).

Columns and labels:
human platelet = experiment: Human platelet aggregation inhibiting activity; type: cell-based; conditions: 5 min, human plasma, adenosine 2-phosphate induced, 5 minutes at 37° C.
Method: (§1) Wistar rats (males, approximately 400 g) were made to fast for one day, the entire blood was removed from the chest artery under anesthesia by ether, then a 1/10 volume of 3.8% aqueous solution of sodium citrate was added and immediately mixed in. The solution was centrifuged at 1000 rpm for 10 minutes, then the upper layer was used as the platelet rich plasma. The lower layer was centrifuged at 3000 rpm for 10 minutes and the upper layer of that was used as the platelet poor plasma. The platelet rich plasma was diluted by the platelet poor plasma to give a number of platelets of 3.5×10^8 /mm^3. This was used for the measurement. Note that the measurement of the platelets was performed using an automatic blood cell counter MEK-4500 (Nihon Koden). The measurement of the platelet aggregation was performed by measuring the turbidity using an NBS HEMA TRACER 801 (M.C. Medical). 90 μl of the platelet solution was inserted in a cuvette, then 5 μl each of the test compounds was added to give the target final concentration. The result was heated for one minute at 37° C., then 5 μl of a 100 μM aqueous solution of adenosine 2-phosphate (M.C. Medical) was added to induce platelet aggregation. The aggregation inhibiting activity was found from the following formula.
(§2) Aggregation inhibiting rate (%)={1-(maximum change of turbidity at time of
(§3) addition of drug)/(maximum change of turbidity at time of non-addition of
(§4) Further, the concentration of the compound giving 50% inhibition was used as the IC50.
50 ml portions of venous blood supplied from healthy human volunteers were used to prepare the platelet rich plasma and the platelet poor plasma in the same way as above. The measurement of the platelet aggregation was performed in the same way as above. However, unlike with the measurement of the rat platelet aggregation inhibiting activity, the test compound was added to the platelet poor plasma in advance and warmed for 5 minutes at 37° C., then the platelet rich plasma was added to give a number of platelets of 3.5×10^8 /mm^3. At the same time, 5 μl of 100 μM an aqueous solution of adenosine 2-phosphate (M.C. Medical) was added to induce platelet aggregation. The aggregation inhibiting activity was calculated in the same way as mentioned above.

Rat Carotid Artery = experiment: Suppressing thickening of intima after trauma to rat carotid artery endothelium by balloon catheter; type: in vivo, Wistar rat; conditions: for thickening of the neointima of the carotid artery (in words) / Suppression rate (intima thickening): 3.2 μg/rat/hr s.c.; for Intima (area) / Media (area) / Intima/Media: 3.2 μg/rat/hr s.c. miniosmotic pump, day 14, average ± standard error; for Intima (area): 3 days before to 11 days after surgery; for Intima (area) / Intima/Media: * p < 0.05 vs control; for Suppression rate (intima thickening): (1-T/C)×100 of Intima/Media
Method: The test was performed in the following manner in accordance with the method of Clowes et al. (Lab. Invest., 49, 206, 1983). Male Wistar rats of a body weight of 300 to 350 g were used. The neck of each rat was opened under anesthesia by sodium pentobarbitol, then a balloon catheter (Fogarty, 2F) was inserted from the right external carotid artery until the starting portion of the common carotid artery. The balloon was expanded by saline to an extent causing a light resistance, then the catheter was pulled out in that state up to the carotid artery to give trauma to the intima. This procedure was repeated three times, then the catheter was withdrawn and the external carotid artery was ligated. After 14 days, the chest was opened under anesthesia by diethyl ether, refluxing and immobilization were performed from the aorti arch by a Karnoa solution (methanol:chloroform:acetic acid=6:3:1), then the right common carotid artery was excised and immobilized by neutral formalin solution. The immobilized carotid artery was dyed by Elastica van Gieson dye, then the areas of the media and thickened portion of the intima were measured by an image resolution device (LUZEX2D).
(§5) The test compound began to be administered subcutaneously at a rate of 3.2 μg/rat/hr using a miniosmotic pump buried in the back of the rat from three days before the surgery and was continued until 11 days after the surgery. The activity of the test compound in suppressing intima thickening was found from the following formula.

[1] = test system: cell migration induced by MCP-1 in human blood monocytes; experiment: Activity for inhibiting cell migration induced by MCP-1 (human blood monocytes); type: cell-based; conditions: Monocyte, 2 h, 20 ng/ml recombinant human MCP-1, 37° C., two hours
Rabbit Carotid Artery = experiment: Suppressing thickening of intima after trauma to rabbit carotid artery endothelium by balloon catheter; type: in vivo, New Zealand white rabbit
Method: The test was performed in the following manner in accordance with the method of Clowes et al. (Lab. Invest., 49, 206, 1983). Use was made of New Zealand white rabbits (male) of approximately 4 kg body weight. The neck portion of each rabbit was opened under anesthesia by sodium pentobarbitol, then a balloon catheter (Fogarty, 3F) was inserted from the right external carotid artery until the starting portion of the common carotid artery. The balloon was expanded by saline to an extent causing a light resistance, then the catheter was pulled out in that state up to the carotid artery to give trauma to the intima. This procedure was performed once, then the catheter was withdrawn and the external carotid artery was ligated. After 10 days, the chest was opened under anesthesia by pentobarbitol and the right common carotid artery was removed and immobilized by a neutral formalin solution. The immobilized carotid artery was dyed by Elastica van Gieson dye, then the areas of the media and intima were measured by an image resolution device (LUZEX2D).
as §5, with “of 32 μg/rabbit/hr” for “of 3.2 μg/rat/hr”, “the rabbit” for “the rat”, “until 10” for “until 11”, “in inhibiting” for “in suppressing”
Intima thickening suppression rate (%)=(1-T/C)×100

rat platelet = experiment: Rat platelet aggregation inhibiting activity; type: cell-based; conditions: rat platelet rich plasma; adenosine 2-phosphate induced; 37° C., one minute
Method: as §1, §2, §3, §4

[2] = 32 μg/rabbit/hr s.c. miniosmotic pump, day 10, average ± standard error

For `CCCC(=O)OC1=C(SCCCCCC(=O)OC)[C@@H](/C=C/C(O)Cc2ccccc2)[C@H](O)C1` (some centres unmarked) [drawing 184], the IC50 (human platelet) was 50 nM.

In the case of `CCCC(=O)OC1=C(SCCCCCC(=O)OC)[C@@H](/C=C/C(O)[C@H](C)c2ccccc2)[C@H](O)C1` (some centres unmarked) [drawing 185], the IC50 (human platelet) is reported as 49 nM.

For `CCCC(=O)OC1=C(SCCCCCC(=O)OC)[C@@H](/C=C/[C@@H](O)C2CCCCC2)[C@H](O)C1` [Example 17, methyl(11R,12S,13E,15S)-9-butyryloxy-11,15-dihydroxy-15-cyclohexyl-16,17,18,19,20-pentanor-7-thiaprosta-8,13-dienoate], the “thickening of the neointima of the carotid artery (in words)” value (Rat Carotid Artery) was “suppresses the thickening of the neointima of the carotid artery”, the “Intima (area)” value (Rat Carotid Artery) was 0.167 mm^2 and the “Media (area)” value (Rat Carotid Artery) was 0.211 mm^2. The Intima/Media (Rat Carotid Artery) was 0.784 and the “Suppression rate (intima thickening)” value (Rat Carotid Artery) was 37.5%.

`CCCC(=O)OC1=C(SCCCCCC(=O)OC)[C@@H](/C=C/C(O)C(C)c2ccccc2)[C@H](O)C1` (some centres unmarked) [drawing 186] was tested, and the IC50 (human platelet) was 105 nM.

With `CCCCC(C)CC(O)/C=C/[C@@H]1C(SCCCCCC(=O)OC)=C(OC(=O)CCC)C[C@H]1O` (some centres unmarked) the IC50 [1] was 1 nM.

`CCCCC(C)C[C@H](O)/C=C/[C@@H]1C(SCCCCCC(=O)OC)=C(OC(=O)CCC)C[C@H]1O` (some centres unmarked) [drawing 183] showed an IC50 (human platelet) of 58 nM.

For `CCCC[C@@H](C)C[C@H](O)/C=C/[C@@H]1C(SCCCCCC(=O)OC)=C(OC(=O)CCC)C[C@H]1O` [Example 2, methyl(11R,12S,13E,15S,17R)-9-butyryloxy-11,15-dihydroxy-17,20-dimethyl-7-thiaprosta-8,13-dienoate], the “thickening of the neointima of the carotid artery (in words)” value (Rat Carotid Artery) was “suppresses the thickening of the neointima of the carotid artery”, the “Intima (area)” value (Rat Carotid Artery) was 0.155 mm^2 and the “Media (area)” value (Rat Carotid Artery) was 0.197 mm^2. The Intima/Media (Rat Carotid Artery) was 0.758, the “Suppression rate (intima thickening)” value (Rat Carotid Artery) was 45.8% and the “Intima (area)” value (Rabbit Carotid Artery; 32 μg/rabbit/hr s.c. miniosmotic pump, 3 days before to 10 days after surgery, day 10, average ± standard error) was 0.055 mm^2. For the same compound, the Intima/Media (Rabbit Carotid Artery; [2]) was 0.152, the “Media (area)” value (Rabbit Carotid Artery; [2]) was 0.367 mm^2 and the “Suppression rate (intima thickening)” value (Rabbit Carotid Artery; (1-T/C)×100 of Intima/Media, 32 μg/rabbit/hr s.c.) was 29.9%.

`CCCCC[C@H](O)/C=C/[C@@H]1C(SCCCCCC(=O)O)=C(OC(=O)CCC)C[C@H]1O` [drawing 181] gave an IC50 (rat platelet) of 300 nM.

Work on `CCCCC(C)C[C@H](O)/C=C/[C@@H]1C(SCCCOCC(=O)OC)=C(OC(=O)CCC)C[C@H]1O` (some centres unmarked) [drawing 187] yielded an IC50 (human platelet) of 59 nM.

For `CCCCC(C)C[C@H](O)/C=C/[C@@H]1C(SCCCCCC(=O)OC)=C(OC(C)=O)C[C@H]1O` (some centres unmarked), the IC50 (rat platelet) was 52 nM.

With `CCCC(=O)OC1=C(SCCCCCC(=O)OC)[C@@H](/C=C/[C@@H](O)C2CCCCC2)[C@H](O)C1` [drawing 182] the IC50 (human platelet) was 120 nM.
